Experimental data reported in ChEMBL document CHEMBL3885861, “Open TG-GATES”.

Species on record: Rattus norvegicus
Assay: Open TG-GATES - Regimen: Daily Repeat
Format: toxicity, organism-based, Sprague-Dawley
Set-up: regimen Daily Repeat, gender Male, age 6 weeks
Conditions: in vivo, po, route gavage; for APTT / Bas / Eos / Fbg / Hb / Ht / Lym / MCH / MCHC / MCV / Mono / Neu / PT / Plat / RBC / Ret / WBC: tissue Blood; for KIDNEY_L / KIDNEY_R / KIDNEY_TOTAL: tissue Kidney; for LIVER: tissue Liver; for A/G / ALP / ALT / AST / BUN / CRE / Ca / Cl / DBIL / GLC / IP / K / LDH / Na / PL / RALB / TBIL / TC / TG / TP / gamma-GTP: tissue Plasma
[1] = 0 mg/kg, 72 h, dose level Control, time 3 day
[2] = 0 mg/kg, […], dose level Control, time 7 day
[3] = 0 mg/kg, […], dose level Control, time 14 day
[4] = 0 mg/kg, […], dose level Control, time 28 day
[5] = 60 mg/kg, 72 h, dose level Low, time 3 day
[6] = 60 mg/kg, […], dose level Low, time 7 day
[7] = 60 mg/kg, […], dose level Low, time 14 day
[8] = 60 mg/kg, […], dose level Low, time 28 day

## C[C@](N)(Cc1ccc(O)c(O)c1)C(=O)O [METHYLDOPA]
[1]
  TERMINAL_BW: 207.1 g
  APTT: 15.9 s
  Bas: 0%
  Eos: 1.2%
  Fbg: 258.8 mg/dL
  Hb: 13.1 g/dL
  Ht: 38.4%
  Lym: 72.4%
  MCH: 21.5 pg
  MCHC: 34.1%
  MCV: 63.1 fL
  Mono: 3.4%
  Neu: 22.6%
  PT: 12.6 s
  Plat: 117.2 x10_4/uL
  RBC: 609 x10_4/ul
  Ret: 7.9%
  WBC: 72.1 x10_2/uL
  KIDNEY_L: 0.9 g
  KIDNEY_R: 0.9 g
  KIDNEY_TOTAL: 1.8 g
  LIVER: 9.3 g
  A/G: 0.8
  ALP: 1855.2 IU/L
  ALT: 59.4 IU/L
  AST: 80.2 IU/L
  BUN: 14 mg/dL
  CRE: 0.2 mg/dL
  Ca: 11.1 mg/dL
  Cl: 106.6 meq/L
  DBIL: 0.008 mg/dL
  GLC: 172.8 mg/dL
  IP: 7.5 mg/dL
  K: 3.9 meq/L
  LDH: 52.2 IU/L
  Na: 144.6 meq/L
  PL: 129.8 mg/dL
  RALB: 2.6 g/dL
  TBIL: 0.056 mg/dL
  TC: 76.8 mg/dL
  TG: 61.4 mg/dL
  TP: 5.6 g/dL
  gamma-GTP: 1.2 IU/L
[2]
  TERMINAL_BW: 238 g
  APTT: 17 s
  Bas: 0%
  Eos: 1.2%
  Fbg: 283.2 mg/dL
  Hb: 13.5 g/dL
  Ht: 39.4%
  Lym: 75%
  MCH: 21 pg
  MCHC: 34.2%
  MCV: 61.4 fL
  Mono: 3%
  Neu: 20.4%
  PT: 12 s
  Plat: 114.7 x10_4/uL
  RBC: 641.2 x10_4/ul
  Ret: 6%
  WBC: 75.9 x10_2/uL
  KIDNEY_L: 1 g
  KIDNEY_R: 1 g
  KIDNEY_TOTAL: 2 g
  LIVER: 10.9 g
  A/G: 0.9
  ALP: 1514 IU/L
  ALT: 46.8 IU/L
  AST: 72 IU/L
  BUN: 15.6 mg/dL
  CRE: 0.2 mg/dL
  Ca: 11 mg/dL
  Cl: 108.6 meq/L
  DBIL: 0.008 mg/dL
  GLC: 178.2 mg/dL
  IP: 6.9 mg/dL
  K: 4.2 meq/L
  LDH: 57.4 IU/L
  Na: 143.8 meq/L
  PL: 140.8 mg/dL
  RALB: 2.7 g/dL
  TBIL: 0.056 mg/dL
  TC: 75.8 mg/dL
  TG: 93.2 mg/dL
  TP: 5.8 g/dL
  gamma-GTP: 1.2 IU/L
[3]
  TERMINAL_BW: 288.8 g
  APTT: 16.9 s
  Bas: 0%
  Eos: 1%
  Fbg: 290.4 mg/dL
  Hb: 13.8 g/dL
  Ht: 39.4%
  Lym: 76%
  MCH: 21.2 pg
  MCHC: 35%
  MCV: 60.4 fL
  Mono: 3.2%
  Neu: 19.6%
  PT: 14.1 s
  Plat: 102.2 x10_4/uL
  RBC: 652 x10_4/ul
  Ret: 4.8%
  WBC: 69.9 x10_2/uL
  KIDNEY_L: 1.1 g
  KIDNEY_R: 1.1 g
  KIDNEY_TOTAL: 2.2 g
  LIVER: 12.7 g
  A/G: 0.8
  ALP: 1553 IU/L
  ALT: 45.2 IU/L
  AST: 65.4 IU/L
  BUN: 15.2 mg/dL
  CRE: 0.2 mg/dL
  Ca: 11.3 mg/dL
  Cl: 107 meq/L
  DBIL: 0.01 mg/dL
  GLC: 188.4 mg/dL
  IP: 6.4 mg/dL
  K: 4.5 meq/L
  LDH: 66.2 IU/L
  Na: 142 meq/L
  PL: 151.8 mg/dL
  RALB: 2.7 g/dL
  TBIL: 0.058 mg/dL
  TC: 76 mg/dL
  TG: 140.8 mg/dL
  TP: 6 g/dL
  gamma-GTP: 1 IU/L
[4]
  TERMINAL_BW: 375.3 g
  APTT: 19.6 s
  Bas: 0%
  Eos: 1.4%
  Fbg: 315.2 mg/dL
  Hb: 15 g/dL
  Ht: 43.3%
  Lym: 74.4%
  MCH: 19.5 pg
  MCHC: 34.8%
  MCV: 56 fL
  Mono: 2.6%
  Neu: 21.4%
  PT: 13.6 s
  Plat: 106 x10_4/uL
  RBC: 774 x10_4/ul
  Ret: 2.7%
  WBC: 74.6 x10_2/uL
  KIDNEY_L: 1.3 g
  KIDNEY_R: 1.2 g
  KIDNEY_TOTAL: 2.5 g
  LIVER: 15.4 g
  A/G: 0.8
  ALP: 1221.8 IU/L
  ALT: 41.2 IU/L
  AST: 59 IU/L
  BUN: 15.4 mg/dL
  CRE: 0.2 mg/dL
  Ca: 11.2 mg/dL
  Cl: 105.6 meq/L
  DBIL: 0.018 mg/dL
  GLC: 185.4 mg/dL
  IP: 6 mg/dL
  K: 3.9 meq/L
  LDH: 46.2 IU/L
  Na: 142.8 meq/L
  PL: 167.8 mg/dL
  RALB: 2.8 g/dL
  TBIL: 0.06 mg/dL
  TC: 89 mg/dL
  TG: 140.8 mg/dL
  TP: 6.3 g/dL
  gamma-GTP: 1 IU/L
[5]
  TERMINAL_BW: 205.8 g
  APTT: 17.3 s
  Bas: 0%
  Eos: 1%
  Fbg: 249 mg/dL
  Hb: 13.5 g/dL
  Ht: 39.1%
  Lym: 77.8%
  MCH: 21.6 pg
  MCHC: 34.4%
  MCV: 62.9 fL
  Mono: 2.8%
  Neu: 17.8%
  PT: 12.6 s
  Plat: 102.6 x10_4/uL
  RBC: 623.2 x10_4/ul
  Ret: 7.7%
  WBC: 71 x10_2/uL
  KIDNEY_L: 0.9 g
  KIDNEY_R: 0.9 g
  KIDNEY_TOTAL: 1.8 g
  LIVER: 8.9 g
  A/G: 0.9
  ALP: 1905.6 IU/L
  ALT: 60.6 IU/L
  AST: 79.2 IU/L
  BUN: 13.6 mg/dL
  CRE: 0.2 mg/dL
  Ca: 11.1 mg/dL
  Cl: 106.8 meq/L
  DBIL: 0.01 mg/dL
  GLC: 172.6 mg/dL
  IP: 7.4 mg/dL
  K: 4 meq/L
  LDH: 59.2 IU/L
  Na: 144 meq/L
  PL: 130 mg/dL
  RALB: 2.6 g/dL
  TBIL: 0.064 mg/dL
  TC: 76.8 mg/dL
  TG: 51.8 mg/dL
  TP: 5.4 g/dL
  gamma-GTP: 1 IU/L
[6]
  TERMINAL_BW: 237.3 g
  APTT: 16.2 s
  Bas: 0%
  Eos: 1%
  Fbg: 269.2 mg/dL
  Hb: 13.7 g/dL
  Ht: 39.9%
  Lym: 77.8%
  MCH: 21.8 pg
  MCHC: 34.3%
  MCV: 63.4 fL
  Mono: 3.2%
  Neu: 17.6%
  PT: 12.1 s
  Plat: 124.4 x10_4/uL
  RBC: 629 x10_4/ul
  Ret: 5.2%
  WBC: 68.8 x10_2/uL
  KIDNEY_L: 1 g
  KIDNEY_R: 1 g
  KIDNEY_TOTAL: 2 g
  LIVER: 10.4 g
  A/G: 0.9
  ALP: 1395.8 IU/L
  ALT: 43.4 IU/L
  AST: 69.4 IU/L
  BUN: 13.4 mg/dL
  CRE: 0.2 mg/dL
  Ca: 11 mg/dL
  Cl: 106.8 meq/L
  DBIL: 0.008 mg/dL
  GLC: 184 mg/dL
  IP: 7.2 mg/dL
  K: 4.6 meq/L
  LDH: 65.6 IU/L
  Na: 145 meq/L
  PL: 138.8 mg/dL
  RALB: 2.7 g/dL
  TBIL: 0.066 mg/dL
  TC: 87.4 mg/dL
  TG: 51.2 mg/dL
  TP: 5.9 g/dL
  gamma-GTP: 1 IU/L
[7]
  TERMINAL_BW: 281.9 g
  APTT: 16.9 s
  Bas: 0%
  Eos: 1%
  Fbg: 302.6 mg/dL
  Hb: 13.8 g/dL
  Ht: 39.6%
  Lym: 80.6%
  MCH: 20.5 pg
  MCHC: 34.9%
  MCV: 59 fL
  Mono: 2.6%
  Neu: 15.4%
  PT: 14 s
  Plat: 109.7 x10_4/uL
  RBC: 672.8 x10_4/ul
  Ret: 4.4%
  WBC: 64.6 x10_2/uL
  KIDNEY_L: 1.1 g
  KIDNEY_R: 1.1 g
  KIDNEY_TOTAL: 2.2 g
  LIVER: 12.2 g
  A/G: 0.9
  ALP: 1372.2 IU/L
  ALT: 40.6 IU/L
  AST: 61.6 IU/L
  BUN: 13.6 mg/dL
  CRE: 0.2 mg/dL
  Ca: 11.3 mg/dL
  Cl: 106.2 meq/L
  DBIL: 0.01 mg/dL
  GLC: 176.8 mg/dL
  IP: 6.6 mg/dL
  K: 4.3 meq/L
  LDH: 53 IU/L
  Na: 142 meq/L
  PL: 155.8 mg/dL
  RALB: 2.8 g/dL
  TBIL: 0.058 mg/dL
  TC: 89 mg/dL
  TG: 85.2 mg/dL
  TP: 5.9 g/dL
  gamma-GTP: 1 IU/L
[8]
  TERMINAL_BW: 389.2 g
  APTT: 18.8 s
  Bas: 0%
  Eos: 1.2%
  Fbg: 289 mg/dL
  Hb: 15 g/dL
  Ht: 42.9%
  Lym: 81.2%
  MCH: 19.7 pg
  MCHC: 35%
  MCV: 56.4 fL
  Mono: 2.2%
  Neu: 15%
  PT: 14 s
  Plat: 108.7 x10_4/uL
  RBC: 760.2 x10_4/ul
  Ret: 2.5%
  WBC: 77.4 x10_2/uL
  KIDNEY_L: 1.3 g
  KIDNEY_R: 1.3 g
  KIDNEY_TOTAL: 2.6 g
  LIVER: 15.2 g
  A/G: 0.8
  ALP: 1102.4 IU/L
  ALT: 49.8 IU/L
  AST: 65.6 IU/L
  BUN: 16 mg/dL
  CRE: 0.2 mg/dL
  Ca: 11.1 mg/dL
  Cl: 106.6 meq/L
  DBIL: 0.018 mg/dL
  GLC: 180.2 mg/dL
  IP: 5.8 mg/dL
  K: 4.2 meq/L
  LDH: 47.6 IU/L
  Na: 143.6 meq/L
  PL: 147 mg/dL
  RALB: 2.7 g/dL
  TBIL: 0.058 mg/dL
  TC: 77 mg/dL
  TG: 101.6 mg/dL
  TP: 6.1 g/dL
  gamma-GTP: 1 IU/L
